Data published in article PMC5829649, “The ribosomal A-site finger is crucial for binding and activation of the stringent factor RelA” (Nucleic Acids Research, 2018).

Key:
RelA [1] = target: T1, RelA (Escherichia coli, UniProt P0AG20); experiment: 3H-GDP conversion to ppGpp by purified RelA with vacant 70S or starved ribosomal complexes, TLC; format: biochemical
T1 construct: untagged native full-length RelA
T1 sequence (P0AG20 1-744): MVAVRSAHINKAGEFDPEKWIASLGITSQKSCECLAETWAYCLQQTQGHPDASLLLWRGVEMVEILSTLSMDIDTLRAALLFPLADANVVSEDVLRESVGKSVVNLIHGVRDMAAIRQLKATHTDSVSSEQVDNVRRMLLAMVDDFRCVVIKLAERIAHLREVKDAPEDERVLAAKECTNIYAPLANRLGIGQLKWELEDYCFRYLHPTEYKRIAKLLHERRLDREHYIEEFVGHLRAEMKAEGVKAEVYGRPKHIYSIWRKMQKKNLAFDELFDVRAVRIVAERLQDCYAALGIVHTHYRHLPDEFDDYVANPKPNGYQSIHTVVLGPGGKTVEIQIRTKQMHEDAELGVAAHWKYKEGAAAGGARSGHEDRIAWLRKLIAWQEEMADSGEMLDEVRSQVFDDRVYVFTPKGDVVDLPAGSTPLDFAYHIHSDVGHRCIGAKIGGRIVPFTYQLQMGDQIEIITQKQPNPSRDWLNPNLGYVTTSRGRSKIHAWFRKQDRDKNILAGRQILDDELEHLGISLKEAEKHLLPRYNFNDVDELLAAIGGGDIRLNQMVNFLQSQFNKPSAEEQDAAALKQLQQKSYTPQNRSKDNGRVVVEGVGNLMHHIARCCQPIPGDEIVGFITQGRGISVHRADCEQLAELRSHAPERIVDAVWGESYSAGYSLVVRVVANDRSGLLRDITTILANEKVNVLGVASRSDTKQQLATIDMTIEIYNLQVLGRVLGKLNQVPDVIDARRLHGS

RelA [2] = target: T1, RelA; experiment: 3H-GTP conversion to pppGpp by purified RelA with ribosomes, TLC; format: biochemical
RelA [3] = target: T1, RelA; experiment: product of 3H-GDP conversion by purified RelA; added at […] it only mildly modulates activity; format: biochemical
RelA [4] = target: T1, RelA; experiment: 3H-ppGpp synthesis assay (TLC) with purified RelA, pppGpp titration (activation), RelA alone or with starved ribosomal complexes; format: biochemical
RelA (untagged native) = target: T2, RelA (untagged native) (Escherichia coli DH5alpha, UniProt P0AG20 1-744); experiment: EMSA; 70 nM RNA, up to 60x excess RelA; weak binding (KD above 3 uM) not excluded; HEPES:Polymix buffer, 5 mM Mg2+, pH 7.5, 37 C; settings: protein: recombinant; tags: none; hairpin
T2 sequence: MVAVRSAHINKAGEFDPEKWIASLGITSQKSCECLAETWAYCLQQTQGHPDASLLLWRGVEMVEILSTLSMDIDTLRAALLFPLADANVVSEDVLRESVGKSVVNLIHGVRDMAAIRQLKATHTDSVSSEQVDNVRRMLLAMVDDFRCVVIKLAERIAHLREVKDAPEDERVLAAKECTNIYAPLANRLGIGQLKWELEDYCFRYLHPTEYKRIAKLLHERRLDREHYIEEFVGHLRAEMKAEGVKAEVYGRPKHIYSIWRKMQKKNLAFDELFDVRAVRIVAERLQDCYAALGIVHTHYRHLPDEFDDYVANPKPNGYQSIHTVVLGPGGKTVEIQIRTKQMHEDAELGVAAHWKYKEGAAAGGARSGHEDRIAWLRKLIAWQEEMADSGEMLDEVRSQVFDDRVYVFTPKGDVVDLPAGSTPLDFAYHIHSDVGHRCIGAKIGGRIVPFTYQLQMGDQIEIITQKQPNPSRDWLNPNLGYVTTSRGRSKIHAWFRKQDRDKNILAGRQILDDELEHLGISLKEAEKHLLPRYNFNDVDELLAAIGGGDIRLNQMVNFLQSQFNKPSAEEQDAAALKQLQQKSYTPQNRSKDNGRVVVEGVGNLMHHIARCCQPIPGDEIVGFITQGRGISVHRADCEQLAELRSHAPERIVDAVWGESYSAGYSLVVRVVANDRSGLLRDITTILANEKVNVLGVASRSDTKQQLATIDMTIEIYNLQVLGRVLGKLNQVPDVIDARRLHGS

Nc1nc2c(ncn2[C@@H]2O[C@H](COP(=O)(O)OP(=O)(O)O)[C@@H](O)[C@H]2O)c(=O)[nH]1 [GDP]
3H-GDP conversion to ppGpp by purified RelA with vacant 70S or starved ribosomal (RelA [1]): 1077±62 ppGpp per RelA per minute

Nc1nc2c(ncn2[C@@H]2O[C@H](COP(=O)(O)OP(=O)(O)OP(=O)(O)O)[C@@H](O)[C@H]2O)c(=O)[nH]1 [GTP]
3H-GTP conversion to pppGpp by purified RelA with ribosomes, TLC (RelA [2]): 896 ± 29 pppGpp reactions per RelA per minute

Nc1nc2c(ncn2[C@@H]2O[C@H](COP(=O)(O)OP(=O)(O)O)[C@@H](OP(=O)(O)OP(=O)(O)O)[C@H]2O)c(=O)[nH]1 [ppGpp]
product of 3H-GDP conversion by purified RelA; added at 100 μM it only mildly mo (RelA [3]): When GTP is used as a substrate, ppGpp acts as a weak inhibitor

Nc1nc2c(ncn2[C@@H]2O[C@H](COP(=O)(O)OP(=O)(O)OP(=O)(O)O)[C@@H](OP(=O)(O)OP(=O)(O)O)[C@H]2O)c(=O)[nH]1 [pppGpp]
EC50 (RelA [4]): 500 to 600 nM

B1: ASF RNA oligonucleotide (23S rRNA H38, 34 nt) (structured_RNA)
RNA: UCGGCAAGGGGGUCAUCCCGACUUACCAACCCGA
binding result (RelA (untagged native)): no binding
